The term IC50 denotes the concentration that inhibits the measured activity by half. As usually defined, the CC50 is the concentration giving 50% cytotoxicity. Higher therefore signals lower toxicity to the cells.

Series [1] is described as follows: Inhibition of GST-tagged recombinant RANKL/M-CSF-induced osteoclastogenesis in C57BL/6 mouse bone marrow derived macrophages assessed as TRAcP enzymatic activity incubated for 5 days with subsequent replenishment of media for 2 days and measured by leucocyte acid phosphatase staining method. The format is functional, tissue-based. To be noted: bmdm.
Series [2] concerns BMDM. As to the kind of experiment: Inhibition of RANKL-induced osteoclastogenesis in C57BL/6 mouse bone marrow derived macrophages assessed as reduction in TRACP mRNA expression measured after 4 days by qRT-PCR method. It counts as functional, tissue-based. Particulars: dose 0.5-5 µM, time 4.0 day; call rule not given here. For orientation: Real-time PCR tracks product formation cycle by cycle.
In series [3] the test system is BMDM. Description: Inhibition of RANKL-induced osteoclastogenesis in C57BL/6 mouse bone marrow derived macrophages assessed as reduction in NFATC1 mRNA expression measured after 4 days by qRT-PCR method. It counts as functional, tissue-based. Particulars: dose 0.5-5 µM, time 4.0 day.
Series [4] concerns BMDM. As to the kind of experiment: Inhibition of RANKL-induced osteoclastogenesis in C57BL/6 mouse bone marrow derived macrophages assessed as reduction in CTSK mRNA expression measured after 4 days by qRT-PCR method. The format is functional, tissue-based. To be noted: dose 0.5-5 µM, time 4.0 day.
The subject of series [5] is BMDM. Description: Inhibition of RANKL-induced osteoclastogenesis in C57BL/6 mouse bone marrow derived macrophages assessed as reduction in RANK mRNA expression measured after 4 days by qRT-PCR method. The format is functional, tissue-based. To be noted: dose 0.5-5 µM, time 4.0 day.
Series [6] is described as follows: Cytotoxicity against C57BL/6 mouse bone marrow measured after 48 hrs by CCK8 assay. The format is tissue-based, BMDM. To be noted: mouse bone marrow cells. For orientation: Tetrazolium dyes change colour on reduction, which living cells bring about.

For the molecule `COc1ccc(C[C@H]2c3cc(OC)c(OC)cc3CCN2C)cc1OC`, the IC50 entry in series [1] is reported as “Not Active”.
On the same count and under the same terms, the entry for `COc1ccc(C(=O)/C=C/c2ccccc2)c(O)c1` is “Not Active”.
For the molecule `COc1cc2nc3occc3c(OC)c2cc1OC` [KOKUSAGININE], the IC50 in series [1] (read-out: IC50) came out at 3160 nM.
Turning to `COc1cc2c(cc1OC)C(Cc1ccc(OCc3ccccc3)c(OC)c1)=NCC2`, the inhibition entry in the series on BMDM [2], in the series on BMDM [3], with BMDM [4] and with BMDM [5] was “Dose-Dependent Effect” throughout. Moreover, the midpoint of cytotoxicity in series [6], the CC50 at 48 h, lay at 26800 nM. Moreover, the IC50 in series [1] (read-out: IC50) came to 32 nM.
With `C=C1CC[C@@H]2[C@](C)(CO)[C@H](O)CC[C@@]2(C)[C@@H]1C/C=C1/C(=O)OC[C@H]1O` [ANDROGRAPHOLIDE], the IC50 in series [1] (read-out: IC50) stood at 550 nM.
Turning to `COc1c2cc3c(cc2nc2occc12)OCO3` [MACULINE], the IC50 result in series [1] was “Not Active”.
The same measure, in the same setting: then `C[C@@H]1CC[C@@]2(OC1)O[C@H]1C[C@H]3[C@@H]4CC[C@H]5C[C@H](O)CC[C@]5(C)C4=CC[C@]3(C)[C@H]1[C@@H]2C`, with “Not Active”; and `COc1cc([C@H]2OC[C@H]3[C@@H]2CO[C@@H]3c2ccc(OC(C)=O)c(OC)c2)ccc1OC(C)=O`, with “Not Active”.
As for `COc1ccc2c(c1)CCN=C2Cc1ccc(OCc2ccccc2)c(OC)c1C`, the inhibition result in the series with BMDM [2], with BMDM [3], with BMDM [4] and in the series with BMDM [5] was “Dose-Dependent Effect” throughout. In addition, the CC50 at 48 h in series [6] worked out at 19900 nM. In series [1] (read-out: IC50), the IC50 worked out at 68 nM.
Consider `CC(=O)[C@H]1CC[C@H]2[C@@H]3CC[C@H]4C[C@@H](OC(=O)Cc5ccc(C(=O)c6ccccc6)cc5)CC[C@]4(C)[C@H]3CC[C@]12C`, for which the IC50 in series [1] (read-out: IC50) was found to be 1730 nM.

The values are drawn from ChEMBL document CHEMBL4813915, “Deep learning enables discovery of highly potent anti-osteoporosis natural products” (Eur J Med Chem, 2021).
